Laboratory results reported in patent publication US20100160226A1, “Y-RECEPTOR AGONISTS” (7TM PHARMA A/S, priority 2007, published 2010).

biological target: T1, human Y1 receptor (Homo sapiens, UniProt P25929); assay: Human Y1 receptor potency assay (inositol phosphate turnover); format: cell-based; settings: COS-7 cells transfected with human Y1 receptor and Gqi5, read-out: hY1 EC50
T1 construct: expressed in transfected cells; host or cells: COS-7
T1 sequence (P25929 1-384): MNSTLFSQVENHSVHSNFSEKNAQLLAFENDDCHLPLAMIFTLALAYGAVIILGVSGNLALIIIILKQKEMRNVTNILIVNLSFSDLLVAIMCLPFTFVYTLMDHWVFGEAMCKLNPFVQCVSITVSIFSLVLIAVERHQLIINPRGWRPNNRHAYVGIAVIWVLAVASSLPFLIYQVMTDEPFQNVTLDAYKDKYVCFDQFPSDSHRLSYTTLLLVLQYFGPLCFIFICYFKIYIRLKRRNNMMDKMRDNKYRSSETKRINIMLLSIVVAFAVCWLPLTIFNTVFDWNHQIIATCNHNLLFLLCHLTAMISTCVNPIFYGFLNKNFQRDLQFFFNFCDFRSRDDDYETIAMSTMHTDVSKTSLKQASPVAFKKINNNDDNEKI
Method: Potency of the test compounds on the human Y2 receptor is determined by performing dose-response experiments in COS-7 cells transiently transfected with the human Y2 receptor as well as a promiscuous G protein, Gqi5 which ensures that the Y2 receptor couples through a Gq pathway leading to an increase in inositol phosphate turnover.
Cells are washed twice in buffer, 20 mM HEPES, pH 7.4, supplemented with 140 mM NaCl, 5 mM KCl, 1 mM MgSO4, 1 mM CaCl2, 10 mM glucose, 0.05% (w/v) bovine serum; and are incubated in 0.5 ml buffer supplemented with 10 mM LiCl at 37 C for 30 min. After stimulation with various concentrations of peptide for 45 min at 37 C, cells are extracted with 10% ice-cold perchloric acid followed by incubation on ice for 30 min. The resulting supernatants are neutralized with KOH in HEPES buffer, and the generated [3H]-inositol phosphate are purified on Bio-Rad AG 1-X8 anion-exchange resin and counted in a beta counter. Determinations are made in duplicates. EC50 values were calculated using a standard pharmacological data handling software, Prism 3.0 (graphPad Sofware, San Diego, USA).
Protocol as for the Y2 potency assay, except that human Y1-transformed COS-7 cells are used.

Which EC50 does the source give for “H-LEPVYPGDNATPEQMAQYAADLRRYINMLTRQRY-NH2 [[Gln34]hPP3-36, reference compound]” here?
Its EC50 is > 1 µM.

Which EC50 does the source give for “H-PLEPVYPGDNATPEQMAQYAADLRRYINTITRQRY-NH2 [[Thr30, Ile31, Gln34]hPP2-36]” here?
The EC50 was > 1 µM.

With “H-PLEPVYPGDNATPEQMAQYAADLRRYINTLTRQRY-NH2 [[Thr30, Gln34]hPP2-36]” as the molecule, how does the EC50 read?
Its EC50 is > 1 µM.

For “H-APLEPVYPGDNATPEQMAQYAADLRRYINTLTRQRY-NH2 [[Thr30, Gln34]hPP]”, which EC50 is on record?
Its EC50 is > 1 µM.

For “H-APLEPVYPGDNATPEQMAQYAADLRRYINTITRQRY-NH2 [[Thr30, Ile31, Gln34]hPP]”, which EC50 is on record?
The EC50 was > 1 µM.

tested on: not listed separately; assay: in vivo; design: species or system cyno monkeys; settings: cynomolgus monkey
Excerpt: PYY itself is know to be extremely emetic when administered peripherally, in fact PYY was discovered-for “the second time” -in 1989 as the biologically active entity in a chromatographic fraction of an intestinal extract causing dogs to vomit (Harding and McDonald 1989 Peptides 10: 21-24). […] It has also been reported that PYY3-36 can cause nausea when administered peripherally to human subjects ([…] press release 29th of June 2004). From a physiological point of view it appears logically that PYY-and its biologically active conversion product-which normally first is secreted in large amounts during a very large meal or when food is dumped into the lower intestine due to various surgical procedures, is able to cause emesis and vomiting to relieve the subject from a situation of overt overeating. […] This is surprising since [[…]]PP has a relatively high potency on the Y2 receptor for which PYY3-36 is totally selective. […] Apparently, the Y4 receptor activation-conceivably in the area postreama-prevents the emetic effect of the Y2 activation form the same compound. This property of a combined Y2-Y4 selective agonist is of great benefit for the treatment of obesity and associated conditions.

With `CC[C@H](C)[C@H](NC(=O)[C@H](Cc1ccc(O)cc1)NC(=O)[C@H](CCCNC(=N)N)NC(=O)[C@H](CCCNC(=N)N)NC(=O)[C@H](CC(C)C)NC(=O)[C@H](CC(=O)O)NC(=O)[C@H](C)NC(=O)[C@H](C)NC(=O)[C@H](Cc1ccc(O)cc1)NC(=O)[C@H](CCC(N)=O)NC(=O)[C@H](C)NC(=O)[C@H](CCSC)NC(=O)[C@H](CCC(N)=O)NC(=O)[C@H](CCC(=O)O)NC(=O)[C@@H]1CCCN1C(=O)[C@@H](NC(=O)[C@H](C)NC(=O)[C@H](CC(N)=O)NC(=O)[C@H](CC(=O)O)NC(=O)CNC(=O)[C@@H]1CCCN1C(=O)[C@H](Cc1ccc(O)cc1)NC(=O)[C@@H](NC(=O)[C@@H]1CCCN1C(=O)[C@H](CCC(=O)O)NC(=O)[C@H](CC(C)C)NC(=O)[C@@H]1CCCN1C(=O)[C@H](C)N)C(C)C)[C@@H](C)O)C(=O)N[C@@H](CC(N)=O)C(=O)N[C@@H](CCSC)C(=O)N[C@@H](CC(C)C)C(=O)N[C@H](C(=O)N[C@@H](CCCNC(=N)N)C(=O)N[C@@H](CCC(N)=O)C(=O)N[C@@H](CCCNC(=N)N)C(=O)N[C@@H](Cc1ccc(O)cc1)C(N)=O)[C@@H](C)O` [[Gln34]hPP] as the molecule, how does the level at time molar read?
Its level at time molar is 0.012 to 0.013 µM.
